Here are results for 15 molecules from ChEMBL document CHEMBL2424627, “Synthesis of novel bioactive pyrazolothiazoles” (Med Chem Res, 2013).

Data set [1] deals with THP-1. Briefly: Antiinflammatory activity in LPS-stimulated human THP1 cells assessed as inhibition of TNFalpha release at 10 ug/ml after 24 hrs by ELISA relative to control. The class given is functional. Conditions: THP-1, 24 h. Background: ELISA stands for enzyme-linked immunosorbent assay.
The subject of data set [2] is THP-1. Briefly: Antiinflammatory activity in LPS-stimulated human THP1 cells assessed as inhibition of IL-6 release at 10 ug/ml after 24 hrs by ELISA relative to control. The class given is functional. As to conditions: THP-1, 24 h.
The nature of data set [3]: Cytotoxicity against human THP1 cells assessed as cell viability at 10 ug/ml after 24 hrs by CCK-8 assay. The class given is cell-based. Conditions: THP-1 cells, read-out: Activity. A general note: Formazan colour is commonly taken as a measure of viable cells.
Data set [4] has as its system THP-1. Briefly: Antiinflammatory activity in LPS-stimulated human THP1 cells assessed as inhibition of TNFalpha release at 1 ug/ml after 24 hrs by ELISA relative to control. The class given is functional. Conditions: THP-1, 24 h.
Data set [5] deals with THP-1. Briefly: Antiinflammatory activity in LPS-stimulated human THP1 cells assessed as inhibition of IL-6 release at 1 ug/ml after 24 hrs by ELISA relative to control. The class given is functional. As to conditions: THP-1, 24 h.
The nature of data set [6]: Cytotoxicity against human THP1 cells assessed as cell viability at 1 ug/ml after 24 hrs by CCK-8 assay. Conditions: THP-1 cells.

By inhibition is commonly meant the drop in the measured response relative to a control, in per cent. On to `CCOC(=O)c1c[nH]nc1-c1sc(N(C)c2ccccc2)nc1-c1ccccc1`, for which the inhibition at 10 µg/mL in the data set with THP-1 [1] amounted to 5%; in the data set on THP-1 [2], 71%. In addition, the viability at 24 h, 10 ug/ml in data set [3] was determined as 26%.
On to `CCOC(=O)c1cn(-c2ccc([N+](=O)[O-])cc2[N+](=O)[O-])nc1-c1sc(N(CC)c2ccccc2)nc1-c1ccccc1`, for which the inhibition at 10 µg/mL with THP-1 [1] worked out at 0%; in the data set on THP-1 [2], 73%. Besides, the viability at 24 h, 10 ug/ml in data set [3] stood at 35%.
In the case of `CCOC(=O)c1cn(-c2ccc(F)cc2)nc1-c1sc(N(CC)c2ccccc2)nc1-c1ccccc1`, the inhibition at 10 µg/mL in the data set on THP-1 [1] worked out at 0%; in the data set with THP-1 [2], 48%. Moreover, the viability at 24 h, 10 ug/ml in data set [3] was determined as 22%.
In the case of `CCOC(=O)c1cn(-c2ccccc2)nc1-c1sc(N(CC)c2ccccc2)nc1-c1ccccc1`, the inhibition at 10 µg/mL was 0% with THP-1 [1] and 47% with THP-1 [2]. In addition, the viability at 24 h, 10 ug/ml in data set [3] was found to be 23%.
The matching figures for `CCOC(=O)c1cn(-c2ccc(F)cc2)nc1-c1sc(N(Cc2ccccc2)c2ccccc2)nc1-c1ccccc1`: 16%, 46% and 10%.
The matching figures for `CCOC(=O)c1c[nH]nc1-c1sc(N(Cc2ccccc2)c2ccccc2)nc1-c1ccccc1`: 13%, 78% and 23%.
On to `C[C@@H]1C[C@H]2[C@@H]3CCC4=CC(=O)C=C[C@]4(C)[C@@]3(F)[C@@H](O)C[C@]2(C)[C@@]1(O)C(=O)CO` [DEXAMETHASONE], for which the inhibition at 1 µg/mL in the data set on THP-1 [4] turned out to be 72%; with THP-1 [5], 85%. Further, in data set [6], the viability at 24 h, 1 ug/ml worked out at 0%.
For `CCOC(=O)c1c[nH]nc1-c1sc(N(CC)c2ccccc2)nc1-c1ccccc1`, the inhibition at 10 µg/mL in the data set on THP-1 [1] amounted to 14%; with THP-1 [2], 56%. Besides, in data set [3], the viability at 24 h, 10 ug/ml was 39%.
The matching figures for `CCOC(=O)c1cn(-c2ccccc2)nc1-c1sc(N(Cc2ccccc2)c2ccccc2)nc1-c1ccccc1`: 12%, 53% and 21%.
For the molecule `CCOC(=O)c1cn(-c2ccc(F)cc2)nc1-c1sc(N(C)c2ccccc2)nc1-c1ccccc1`, the results for the inhibition at 10 µg/mL with THP-1 [1] and in the data set with THP-1 [2] were 4% and 61%, respectively. The viability at 24 h, 10 ug/ml in data set [3] is 33%.
The matching figures for `CCOC(=O)c1cn(-c2ccccc2)nc1-c1sc(N(C)c2ccccc2)nc1-c1ccccc1`: 0%, 52% and 25%.
The corresponding values for `CCOC(=O)c1cn(-c2ccc(Cl)cc2)nc1-c1sc(N(C)c2ccccc2)nc1-c1ccccc1` are 11%, 51% and 23%.
Turning to `CCOC(=O)c1cn(-c2ccc(Cl)cc2)nc1-c1sc(N(CC)c2ccccc2)nc1-c1ccccc1`, the inhibition at 10 µg/mL in the data set with THP-1 [1] came out at 2%; in the data set with THP-1 [2] it was 58%. The viability at 24 h, 10 ug/ml in data set [3] came out at 29%.
For the molecule `CCOC(=O)c1cn(-c2ccc(Cl)cc2)nc1-c1sc(N(Cc2ccccc2)c2ccccc2)nc1-c1ccccc1`, the inhibition at 10 µg/mL turned out to be 7% in the data set on THP-1 [1] and 20% in the data set on THP-1 [2]. For the same molecule, the viability at 24 h, 10 ug/ml in data set [3] amounted to 2%.
Turning to `CCOC(=O)c1cn(-c2ccc([N+](=O)[O-])cc2[N+](=O)[O-])nc1-c1sc(N(C)c2ccccc2)nc1-c1ccccc1`, the inhibition at 10 µg/mL amounted to 5% in the data set on THP-1 [1] and 52% in the data set on THP-1 [2]. Besides, the viability at 24 h, 10 ug/ml in data set [3] is 17%.
